Measurements reported in US5068325A, “4,5,7,8-tetrahydro-6H-thiazolo[5,4-d]azepines, their preparation and their use as pharmaceutical compositions” (priority 1988, dated 1991).

Columns and labels:
[1] = molecular target: dopamine D2-receptors (Rattus norvegicus, UniProt P61169); assay: affinity for dopamine D2-receptors by displacement experiments with [3H]-spiperone (rat striatum membranes); format: binding; conditions: for Ki: [3H]-spiperone, high-affinity form of the dopamine receptor; for α2-IC50 / D2-Ki: relative affinity for dopamine-D2 receptors compared with α2-adrenoceptors, the higher, the higher the D2/α2 selectivity
dopamine D2-receptors, sequence (P61169 whole entry): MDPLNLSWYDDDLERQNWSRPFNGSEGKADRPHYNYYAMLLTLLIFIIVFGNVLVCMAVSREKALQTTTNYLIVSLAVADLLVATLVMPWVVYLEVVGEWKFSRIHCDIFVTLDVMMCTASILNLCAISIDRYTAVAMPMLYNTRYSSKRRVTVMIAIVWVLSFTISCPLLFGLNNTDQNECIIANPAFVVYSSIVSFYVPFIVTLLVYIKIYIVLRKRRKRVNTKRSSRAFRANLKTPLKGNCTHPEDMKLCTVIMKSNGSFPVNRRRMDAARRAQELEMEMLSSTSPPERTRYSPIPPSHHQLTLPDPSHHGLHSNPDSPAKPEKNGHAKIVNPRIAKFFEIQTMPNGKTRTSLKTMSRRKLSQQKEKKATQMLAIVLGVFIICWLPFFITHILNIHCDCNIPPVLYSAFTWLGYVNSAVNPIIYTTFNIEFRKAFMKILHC
Procedure: 1Determining the affinity for dopamine D2-receptors by displacement experiments with [^3 H]-spiperone (Modified Method of W. Billard et al., Life Sci. 35, 1885 (1984) and D. J. de Vries and P. M. Beart, Eur. J. Pharmacol. 109, 417 (1985))
Male rats (of the Chbb:Thom strain weighing about 200 g) were killed by a blow to the back of the neck. The brains were removed and dissected on ice. The striata were dissected out, weighed and homogenised in 25 volumes of tris buffer (50 mM tris-HCl, 1 mM EDTA, 5 mM MgCl2 and 1 mM ascorbic acid) for 30 seconds in an Ultra-Turrax at maximum speed, followed by 10 cycles in a Potter-Elvehjem at 1400 rpm. The pellet obtained after centrifuging at 50,000×g at 4° C. for 15 minutes was again taken up in 25 ml of tris buffer and centrifuged under the above conditions. The supernatant was discarded and the pellet obtained was incubated in 25 ml of tris buffer at 37° C. for 30 minutes and then centrifuged again at 50,000×g at 4° C. for 15 minutes. Finally, the pellet obtained was mixed with tris buffer to obtain a homogenate dilution of 1:500 (based on the weight of the striata).
1 ml aliquots of the membrane preparation were incubated with 1 ml of a solution of 0.25 nM [^3 H]-spiperone ([…], Messrs. DuPont NEN) and at increasing concentrations of the test substance (10^-11 to 10^-4 M) at ambient temperature for one hour. Incubation was ended by the addition of 5 ml of ice cold tris buffer and filtration using Whatman GF/B filters. The filters were washed twice, each time with 5 ml of ice cold buffer. The radioactivity of the filters was determined by liquid scintillation measurement in Instagel^(R) (Messrs. Canberra Packard). Non-specific binding was determined in the presence of 10^-5 M haloperidol (Sigma Chemical Co.).
Displacement curves were obtained from the data using the TOPFIT programming package (G. Heinzel in "Pharmacokinetics During Drug Development: Data Analysis and Evaluation Techniques", G. Bozler and J. M. van Rossum Eds., G. Fischer Verlag, Stuttgart 1982, 207).

[2] = molecular target: T1, alpha-2 receptors (Rattus norvegicus, UniProt P22909); assay: affinity for alpha-2 receptors by displacement experiments with [3H]-clonidine (rat cortex membranes); format: binding; conditions: read-out: α2-IC50
T1 sequence (P22909 1-465): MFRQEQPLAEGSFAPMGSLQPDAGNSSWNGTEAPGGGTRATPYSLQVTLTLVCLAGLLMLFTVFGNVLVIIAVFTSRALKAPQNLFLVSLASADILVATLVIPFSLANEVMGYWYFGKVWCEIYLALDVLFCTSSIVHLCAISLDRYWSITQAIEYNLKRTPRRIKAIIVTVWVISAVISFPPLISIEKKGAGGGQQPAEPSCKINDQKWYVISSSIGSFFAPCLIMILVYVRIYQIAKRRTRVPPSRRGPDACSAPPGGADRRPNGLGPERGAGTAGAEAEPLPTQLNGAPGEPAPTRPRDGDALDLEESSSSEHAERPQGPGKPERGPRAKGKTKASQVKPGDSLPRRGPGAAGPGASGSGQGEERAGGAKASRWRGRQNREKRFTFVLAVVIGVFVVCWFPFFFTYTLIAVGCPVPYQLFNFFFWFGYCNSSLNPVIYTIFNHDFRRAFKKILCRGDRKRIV

[3] = test system: MPTP monkeys; assay: post-synaptic dopaminergic activity in MPTP monkeys; format: in vivo, rhesus monkey; conditions: for effect on MPTP-induced symptoms: MPTP-treated rhesus monkeys; for minimal effective dose: Primates, in Macaca mulatta, im, rhesus monkeys, i.m., read-out: minimum dose (MED) required to alleviate the Parkinson's symptoms
Description: 6. Determining the post-synaptic dopaminergic activity in MPTP monkeys (Modified Method of R. S. Burns et al., Proc. Natl. Acad. Sci. 80. 4546 (1983))
The neurotoxin 1-methyl-4-phenyl-1,2,3,6- tetrahydro-pyridine (MPTP) produces in humans and monkeys an irreversible syndrome which in its clinical, pathological, biochemical and pharmacological appearance is very similar to idiopathic Parkinson's disease (Markey et al., Nature 311, 464 (1984)). The reason for this similarity is that MPTP selectively destroys those dopaminergic nerve cells in the substantia nigra of the brain which are also lost by degenerative processes in Parkinson's disease. There is even some discussion that MPTP or an MPTP-like substance might be formed in the body and trigger Parkinson's disease (S. H. Snyder, Nature 311, 514 (1984)). Possibly because of the specific MPTP metabolism, the clinical formation of the MPTP-induced Parkinson syndrome has hitherto been detected only in humans and monkeys. The MPTP model produced in the rhesus monkey is therefore exceptionally suitable for testing the activity of post-synaptically acting dopamine agonists. For this purpose, rhesus monkeys were given MPTP in overall doses of up to about 6 mg/kg of body weight, until the following symptoms appeared: The animals were akinetic and unable to take water and food.
It is clear that with the compounds according to the invention there is no sedative effect or ataxia at a dosage which is several times the MED, which can be put down to the absence of a corresponding activity mediated by the α2- receptors.

Structure (SMILES)	Ki [1] [nM]	α2-IC50 / D2-Ki [1]	IC50 [2] [nM]	further results
Cl.Cl.Nc1nc2c(s1)CCN(CCCc1ccccc1)CC2 [Example 3b, 2-Amino-6-(3-phenyl-propyl)-4,5,7,8-tetrahydro-6H-thiazolo[5,4-d]azepine-dihydrochloride]	24	145	810	
Nc1nc2c(s1)CCN(CC#Cc1ccccn1)CC2 [Example 10, 2-Amino-6-(3-(2-pyridyl)-2-propyn-1-yl)-4,5,7,8-tetrahydro-6H-thiazolo[5,4-d]azepine]	17	882	15000	
Nc1nc2c(s1)CCN(CC=Cc1ccc(OCc3ccccc3)cc1)CC2 [Example 4z, 2-Amino-6-(3-(4-benzyloxy-phenyl)allyl)-4,5,7,8-tetrahydro-6H-thiazolo[5,4-d]azepine]	8.4	452	3800	
Nc1nc2c(s1)CCN(CC=Cc1cccc(Cl)n1)CC2 [Example 11, 2-Amino-6-(3-(6-chloro-2-pyridyl)allyl)-4,5,7,8-tetrahydro-6H-thiazolo[5,4-d]azepine]	3.2	256	820	
CN1CCc2cccc3c2[C@H]1Cc1ccc(O)c(O)c1-3 [apomorphine, reference compound]				effect on MPTP-induced symptoms [3]: temporary cessation of this phenomenon
CC(C)COc1ccc(C=CCN2CCc3nc(N)sc3CC2)cc1 [Example 8n, 2-Amino-6-(3-(4-isobutoxy-phenyl)allyl)-4,5,7,8-tetrahydro-6H-thiazolo[5,4-d]azepine]	15	133	2000	
Cc1nc(C=CCN2CCc3nc(N)sc3CC2)cs1 [Example 9, 2-Amino-6-(3-(2-methyl-4-thiazolyl)allyl)-4,5,7,8,-tetrahydro-6H-thiazolo[5,4-d]azepine-semihydrate]	6.7	79	530	
Nc1nc2c(s1)CCN(CC=Cc1ccccc1O)CC2 [Example 15, 2-Amino-6-(3-(2-hydroxy-phenyl)allyl)-4,5,7,8-tetrahydro-6H-thiazolo[5,4-d]azepine]	0.95	621	590	
Cc1cccnc1C=CCN1CCc2nc(N)sc2CC1 [Example 11i, 2-Amino-6-(3-(3-methyl-2-pyridyl)allyl)-4,5,7,8-tetrahydro-6H-thiazolo[5,4-d]azepine]	2.6	576	1500	Duration of activity ([3]; 0.05 mg/kg i.m. (MED)): ~ 1.5 hours; Side effects ([3]; 0.05 mg/kg i.m. (MED)): none; Duration of activity ([3]; 0.20 mg/kg i.m.): 2.0 to 5 h; Side effects ([3]; 0.20 mg/kg i.m.): none; minimal effective dose [3]: 0.05 mg/kg
Nc1nc2c(s1)CCN(CC=Cc1ccccc1Cl)CC2 [Example 4e, 2-Amino-6-(3-(2-chloro-phenyl)allyl)-4,5,7,8-tetrahydro-6H-thiazolo[5,4-d]azepine]	3	63	190	
COc1ccc(OC)c(C=CCN2CCc3nc(N)sc3CC2)c1 [Example 4p, 2-Amino-6-(3-(2,5-dimethoxy-phenyl)allyl)-4,5,7,8-tetrahydro-6H-thiazolo[5,4-d]azepine]	0.89	100	89	Duration of activity ([3]; 0.05 mg/kg i.m. (MED)): ~ 2 hours; Side effects ([3]; 0.05 mg/kg i.m. (MED)): none; Duration of activity ([3]; 0.30 mg/kg i.m.): 2.0 to 5 h; Side effects ([3]; 0.30 mg/kg i.m.): none; minimal effective dose [3]: 0.05 mg/kg
Nc1nc2c(s1)CCN(CC=Cc1ccccc1-c1ccccc1)CC2 [Example 4v, 2-Amino-6-(3-(2-biphenyl)allyl)-4,5,7,8-tetrahydro-6H-thiazolo[5,4-d]azepine]	8	287	2300	
Nc1nc2c(s1)CCN(CC(=Cc1ccccc1)c1ccccc1)CC2 [Example 8o]	14	235	3300	
Nc1nc2c(s1)CCN(CC=Cc1ccccc1N)CC2 [Example 16, 2-Amino-6-(3-(2-amino-phenyl)allyl)-4,5,7,8-tetrahydro-6H-thiazolo[5,4-d]azepine]	1.4	285	400	
Nc1nc2c(s1)CCN(CC=Cc1ccc([N+](=O)[O-])cc1)CC2 [Example 4i, 2-Amino-6-(3-(4-nitro-phenyl)allyl)-4,5,7,8-tetrahydro-6H-thiazolo[5,4-d]azepine]	13	157	2050	
N[C@@H](Cc1ccc(O)c(O)c1)C(=O)O [levodopa, reference compound]				effect on MPTP-induced symptoms [3]: temporary cessation of this phenomenon
COc1cccc(C=CCN2CCc3nc(N)sc3CC2)c1OC [Example 4o, 2-Amino-6-(3-(2,3-dimethoxy-phenyl)allyl)-4,5,7,8-tetrahydro-6H-thiazolo[5,4-d]azepine]	1.3	423	550	
Nc1nc2c(s1)CCN(CC=Cc1ccccc1[N+](=O)[O-])CC2 [Example 4g, 2-Amino-6-(3-(2-nitro-phenyl)allyl)-4,5,7,8-tetrahydro-6H-thiazolo[5,4-d]azepine]	2	120	240	
Nc1nc2c(s1)CCN(CC=Cc1ccc(Cl)cc1)CC2 [Example 3a, 2-Amino-6-(3-(4-chloro-phenyl)allyl)-4,5,7,8-tetrahydro-6H-thiazolo[5,4-d]azepine]	7	88	620	
